The source of these data is ChEMBL document CHEMBL1201862, “PubChem BioAssay data set” (2004).

Common to all, as to experiment: NCI anticancer screen, dose series, 48 h
The subject of assay [1] is HCT-116.
The subject of assay [2] is EKVX.
Assay [3] relates to SN12C.
The subject of assay [4] is NCI-H226.
Assay [5] relates to MDA-N.
The test system of assay [6] is MOLT-4.
In assay [7] the test system is HOP-92.
The subject of assay [8] is T47D.
Assay [9] relates to MCF7.
Assay [10] relates to SK-MEL-5.
The subject of assay [11] is SF-539.
Assay [12] has as its system KM12.
For assay [13], the system named is NCI-H23.
Assay [14] deals with TK-10.
Assay [15] deals with SNB-75.
Assay [16] has as its system A549.
Assay [17] deals with HCC 2998.
The subject of assay [18] is UACC-257.
For assay [19], the system named is ACHN.
Assay [20] concerns Malme-3M.

Each structure is given as a SMILES string.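 In this assay, cells in 96-well plates receive the compound at five concentrations for 48 hours. Endpoints are linearly interpolated between the surrounding concentrations. The concentration for 50% growth inhibition is given as GI50.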 Activity calls are given as the source filed them. Rule as the data show it: active = GI50 up to about 1.1 µM and inactive = higher.

For `COc1cc2ccc(/C=C\[N+](=O)[O-])cc2cc1OC`, the GI50 was 2.34 µM (inactive) in assay [1]; 4.3 µM (inactive) in assay [2]; 2.37 µM (inactive) in [3]; 27.7 µM (inactive) in assay [4]; 2.18 µM (inactive) in assay [5]; 5.09 µM (inactive) in assay [6]. Moreover, the GI50 in assay [7] was 4.41 µM (inactive); in assay [8], 2.92 µM (inactive); in [9], 2.24 µM (inactive); in assay [10], 4.76 µM (inactive); in assay [11], 1.97 µM (inactive); in assay [12] it was 6.85 µM (inactive). Besides, the GI50 was 2.5 µM (inactive) in assay [13]; 3.08 µM (inactive) in assay [14]; 2.48 µM (inactive) in assay [15]; 11.4 µM (inactive) in [16]; 3.44 µM (inactive) in [17]; 3.11 µM (inactive) in [18]. Moreover, the GI50 in assay [19] was 1.81 µM (inactive).
Consider `CCNC(=O)Cc1nc2c(N)ncnc2n1C1OC(CO)C(O)C1O` (configuration not stated), for which the GI50 in assay [1], in assay [2], in assay [3], in assay [20], in assay [4] and in assay [5] was > 100 µM (inactive) throughout. Also, the GI50 was > 100 µM (inactive) in assay [6]; > 100 µM (inactive) in assay [7]; 58.6 µM (inactive) in assay [8]; 23.3 µM (inactive) in assay [9]; > 100 µM (inactive) in assay [10]; > 100 µM (inactive) in assay [11]. In addition, the GI50 is > 100 µM (inactive) in [12]; > 100 µM (inactive) in assay [13]; > 100 µM (inactive) in [14]; > 100 µM (inactive) in assay [16]; 95.7 µM (inactive) in [17]; > 100 µM (inactive) in [18]. In addition, in assay [19], the GI50 is > 100 µM (inactive).
For `Cc1ccc(-n2cc([Si](C)(C)C)nn2)s1`, the GI50 in assay [1], in [3], in assay [20], in assay [4], in assay [5] and in [7] was > 100 µM (inactive) throughout. Further, the GI50 in assay [8] was > 100 µM (inactive); in [9] it was > 100 µM (inactive); in assay [10], 45.4 µM (inactive); in assay [11], > 100 µM (inactive); in assay [13], 68.4 µM (inactive); in assay [14], > 100 µM (inactive). The GI50 is > 100 µM (inactive) in assay [16], 81.3 µM (inactive) in [17], > 100 µM (inactive) in [18] and > 100 µM (inactive) in assay [19].
With `COc1cc(Cn2c3c(c4cc(O)ccc42)C(=O)c2ccccc2C3=O)cc(OC)c1`, the GI50 in assay [1] was 0.881 µM (active); in [2] it was 15.3 µM (inactive); in assay [3], 5.09 µM (inactive); in [20] it was 8.22 µM (inactive); in [5], 1.49 µM (inactive); in [6], 16.3 µM (inactive). The GI50 is 1.85 µM (inactive) in [7]; 6.35 µM (inactive) in assay [8]; 12.2 µM (inactive) in [9]; 4.29 µM (inactive) in assay [10]; 2.05 µM (inactive) in assay [11]; 2.43 µM (inactive) in assay [12]. Besides, the GI50 in [13] is 8.57 µM (inactive); in [14], 11.6 µM (inactive); in assay [16] it was 10.5 µM (inactive); in assay [17], 6.19 µM (inactive); in assay [18] it was 39.2 µM (inactive); in [19], 1.61 µM (inactive).
With `CC1(C)[C@@H]2C[C@H]1C(Cc1cccc(C[C@H]3c4cc(-c5ccccn5)ncc4[C@H]4C[C@@H]3C4(C)C)c1)c1cc(-c3ccccn3)ncc12` (some centres not stated), the GI50 was 0.428 µM (active) in assay [1]; 0.834 µM (active) in [3]; 0.729 µM (active) in assay [5]; 0.312 µM (active) in [6]; 1.71 µM (inactive) in assay [8]; 0.547 µM (active) in assay [9]. Also, the GI50 is 0.303 µM (active) in [10]; 1.28 µM (inactive) in assay [11]; 0.647 µM (active) in assay [12]; 1.82 µM (inactive) in assay [13]; 2.44 µM (inactive) in assay [14]; 5.05 µM (inactive) in [15]. For the same molecule, the GI50 was 0.518 µM (active) in assay [16], 0.923 µM (active) in assay [17], 1.48 µM (inactive) in [18] and 0.328 µM (active) in assay [19].
Regarding `CCc1nc(N)nc(N)c1-c1ccc([N+](C)(C)C)cc1`, the GI50 in assay [1], in assay [2], in assay [3], in assay [4], in assay [5] and in [6] was > 100 µM (inactive) throughout. Moreover, the GI50 in [7], in assay [8], in assay [9], in assay [10], in assay [11] and in assay [12] was > 100 µM (inactive) each time. Also, the GI50 in assay [13], in [14], in [15], in [16], in assay [17] and in assay [18] was > 100 µM (inactive) in each case. In assay [19], the GI50 is > 100 µM (inactive).
On to `CC(=O)c1c2c(cc3c1CC1(C3)Cc3cc4c(c(C(C)=O)c3C1)CCCC4)CCCC2`, for which the GI50 in assay [1] was 55.8 µM (inactive); in [2], > 100 µM (inactive); in [3], > 100 µM (inactive); in [20] it was > 100 µM (inactive); in assay [4] it was > 100 µM (inactive); in assay [5], 38.4 µM (inactive). In addition, the GI50 in assay [6] was 18.4 µM (inactive); in assay [7], 81.8 µM (inactive); in [8], 62.2 µM (inactive); in assay [9], 56.2 µM (inactive); in assay [10] it was 17.4 µM (inactive); in assay [11] it was > 100 µM (inactive). The GI50 in assay [12] is 28.7 µM (inactive); in assay [13], > 100 µM (inactive); in assay [14], > 100 µM (inactive); in [16], > 100 µM (inactive); in assay [17], > 100 µM (inactive); in assay [18] it was 25.1 µM (inactive). Also, the GI50 in assay [19] is 27.9 µM (inactive).
For the molecule `COC1OC(CBr)C(OC(c2ccccc2)(c2ccccc2)c2ccccc2)C(OC(c2ccccc2)(c2ccccc2)c2ccccc2)C1OC(c1ccccc1)(c1ccccc1)c1ccccc1` (configuration not stated), the GI50 in assay [1] is 37.6 µM (inactive); in [2], 17.5 µM (inactive); in assay [3], 41.3 µM (inactive); in [20], 33.8 µM (inactive); in [4], 33.4 µM (inactive); in assay [5], 74.3 µM (inactive). For the same molecule, the GI50 in assay [6] was > 100 µM (inactive); in [7] it was 17.1 µM (inactive); in assay [8] it was 22.6 µM (inactive); in [9], 41.7 µM (inactive); in assay [10] it was 66.5 µM (inactive); in assay [11], 23.1 µM (inactive). The GI50 was > 100 µM (inactive) in [12]; 87.3 µM (inactive) in assay [13]; 28.3 µM (inactive) in assay [14]; 38.9 µM (inactive) in assay [16]; 65.2 µM (inactive) in assay [17]; > 100 µM (inactive) in [18]. In addition, the GI50 in assay [19] is 45.9 µM (inactive).
`CN(C)CCNC(=O)c1cccc2c1Oc1cccc([N+](=O)[O-])c1O2`: the GI50 in assay [1] is 16.9 µM (inactive); in assay [3], 23.3 µM (inactive); in assay [20], 14.1 µM (inactive); in assay [4], 12.7 µM (inactive); in assay [5], 17.7 µM (inactive); in assay [6], 4.74 µM (inactive). Besides, the GI50 in assay [8] is 14.8 µM (inactive); in assay [9], 19.1 µM (inactive); in [10], 19.1 µM (inactive); in [11], 18.2 µM (inactive); in [12], 22.8 µM (inactive); in assay [13], 24.7 µM (inactive). Moreover, the GI50 in assay [14] was 21.4 µM (inactive); in assay [15], 13.9 µM (inactive); in assay [16] it was 16 µM (inactive); in assay [17], 23.7 µM (inactive); in assay [18], 18.5 µM (inactive); in [19], 18.7 µM (inactive).
Turning to `Cc1cccc2c1Oc1cc(Cl)ccc1C2NC(=O)CCN1CCOCC1` (configuration not stated), the GI50 in assay [1] was > 100 µM (inactive); in assay [2] it was > 100 µM (inactive); in assay [3] it was > 100 µM (inactive); in assay [5], > 100 µM (inactive); in assay [6], 49.4 µM (inactive); in [7] it was 18.1 µM (inactive). The GI50 in assay [8], in assay [9], in assay [10], in assay [11], in [12] and in assay [13] was > 100 µM (inactive) each time. The GI50 in assay [14] was > 100 µM (inactive); in assay [15], 21.8 µM (inactive); in assay [16] it was > 100 µM (inactive); in [17] it was > 100 µM (inactive); in assay [18], > 100 µM (inactive).
With `O=[N+]([O-])c1ncc(N(CCO)CCO)s1`, the GI50 in [1] is 37.1 µM (inactive); in assay [2] it was > 100 µM (inactive); in assay [3] it was 41.4 µM (inactive); in assay [20], 18.2 µM (inactive); in assay [4], > 100 µM (inactive); in assay [5] it was 30.3 µM (inactive). The GI50 in assay [6] is 36.6 µM (inactive); in assay [8], 27.5 µM (inactive); in [9], 37 µM (inactive); in [11] it was 14.4 µM (inactive); in [12], > 100 µM (inactive); in assay [13] it was 41 µM (inactive). Moreover, the GI50 in assay [14] is 34.9 µM (inactive); in [15], 30.8 µM (inactive); in assay [17], 47 µM (inactive); in assay [18], 25 µM (inactive); in assay [19] it was 37.7 µM (inactive).
